Source: article PMC10629533, “Structures and membrane interactions of native serotonin transporter in complexes with psychostimulants” (Proceedings of the National Academy of Sciences of the …, 2023)

Target: T1, porcine serotonin transporter (pSERT) (Sus scrofa, UniProt F1RN70)
T1 construct: gene SLC6A4; native full-length pSERT from porcine brain; model residues 116-654; with 15B8 Fab
Assay: cryo-EM structure ([…] Å); [3H]paroxetine competition SPA with purified native pSERT
Assay type: binding

T1 sequence (F1RN70 38-667): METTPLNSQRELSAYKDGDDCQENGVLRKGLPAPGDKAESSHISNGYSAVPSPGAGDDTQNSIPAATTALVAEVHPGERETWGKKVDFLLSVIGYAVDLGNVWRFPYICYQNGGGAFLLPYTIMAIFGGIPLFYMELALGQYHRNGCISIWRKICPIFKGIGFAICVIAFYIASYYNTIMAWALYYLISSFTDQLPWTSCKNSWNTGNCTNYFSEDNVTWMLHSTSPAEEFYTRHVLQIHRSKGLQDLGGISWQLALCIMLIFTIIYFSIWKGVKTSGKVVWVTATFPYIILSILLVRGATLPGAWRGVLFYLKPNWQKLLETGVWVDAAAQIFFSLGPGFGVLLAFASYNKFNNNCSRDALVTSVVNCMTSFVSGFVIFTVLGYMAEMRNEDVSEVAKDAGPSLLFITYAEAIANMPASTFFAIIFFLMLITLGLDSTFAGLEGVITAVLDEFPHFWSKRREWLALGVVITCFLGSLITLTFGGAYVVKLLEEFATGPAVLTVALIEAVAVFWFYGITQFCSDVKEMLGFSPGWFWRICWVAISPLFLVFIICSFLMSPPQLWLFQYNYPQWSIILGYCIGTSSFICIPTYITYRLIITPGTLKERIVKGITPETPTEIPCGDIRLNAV

SMILES: CN[C@@H](C)Cc1ccccc1 [(+)-methamphetamine]
- Ki: 199 ± 103 µM
